Data on 21 molecules can be found in patent US10668067B2, “Pyridine sulfonamides” (AMGEN INC., priority 2016, dated 2020).

Structures are written as SMILES.

Sequence of human Nav1.7 (Q15858 whole entry): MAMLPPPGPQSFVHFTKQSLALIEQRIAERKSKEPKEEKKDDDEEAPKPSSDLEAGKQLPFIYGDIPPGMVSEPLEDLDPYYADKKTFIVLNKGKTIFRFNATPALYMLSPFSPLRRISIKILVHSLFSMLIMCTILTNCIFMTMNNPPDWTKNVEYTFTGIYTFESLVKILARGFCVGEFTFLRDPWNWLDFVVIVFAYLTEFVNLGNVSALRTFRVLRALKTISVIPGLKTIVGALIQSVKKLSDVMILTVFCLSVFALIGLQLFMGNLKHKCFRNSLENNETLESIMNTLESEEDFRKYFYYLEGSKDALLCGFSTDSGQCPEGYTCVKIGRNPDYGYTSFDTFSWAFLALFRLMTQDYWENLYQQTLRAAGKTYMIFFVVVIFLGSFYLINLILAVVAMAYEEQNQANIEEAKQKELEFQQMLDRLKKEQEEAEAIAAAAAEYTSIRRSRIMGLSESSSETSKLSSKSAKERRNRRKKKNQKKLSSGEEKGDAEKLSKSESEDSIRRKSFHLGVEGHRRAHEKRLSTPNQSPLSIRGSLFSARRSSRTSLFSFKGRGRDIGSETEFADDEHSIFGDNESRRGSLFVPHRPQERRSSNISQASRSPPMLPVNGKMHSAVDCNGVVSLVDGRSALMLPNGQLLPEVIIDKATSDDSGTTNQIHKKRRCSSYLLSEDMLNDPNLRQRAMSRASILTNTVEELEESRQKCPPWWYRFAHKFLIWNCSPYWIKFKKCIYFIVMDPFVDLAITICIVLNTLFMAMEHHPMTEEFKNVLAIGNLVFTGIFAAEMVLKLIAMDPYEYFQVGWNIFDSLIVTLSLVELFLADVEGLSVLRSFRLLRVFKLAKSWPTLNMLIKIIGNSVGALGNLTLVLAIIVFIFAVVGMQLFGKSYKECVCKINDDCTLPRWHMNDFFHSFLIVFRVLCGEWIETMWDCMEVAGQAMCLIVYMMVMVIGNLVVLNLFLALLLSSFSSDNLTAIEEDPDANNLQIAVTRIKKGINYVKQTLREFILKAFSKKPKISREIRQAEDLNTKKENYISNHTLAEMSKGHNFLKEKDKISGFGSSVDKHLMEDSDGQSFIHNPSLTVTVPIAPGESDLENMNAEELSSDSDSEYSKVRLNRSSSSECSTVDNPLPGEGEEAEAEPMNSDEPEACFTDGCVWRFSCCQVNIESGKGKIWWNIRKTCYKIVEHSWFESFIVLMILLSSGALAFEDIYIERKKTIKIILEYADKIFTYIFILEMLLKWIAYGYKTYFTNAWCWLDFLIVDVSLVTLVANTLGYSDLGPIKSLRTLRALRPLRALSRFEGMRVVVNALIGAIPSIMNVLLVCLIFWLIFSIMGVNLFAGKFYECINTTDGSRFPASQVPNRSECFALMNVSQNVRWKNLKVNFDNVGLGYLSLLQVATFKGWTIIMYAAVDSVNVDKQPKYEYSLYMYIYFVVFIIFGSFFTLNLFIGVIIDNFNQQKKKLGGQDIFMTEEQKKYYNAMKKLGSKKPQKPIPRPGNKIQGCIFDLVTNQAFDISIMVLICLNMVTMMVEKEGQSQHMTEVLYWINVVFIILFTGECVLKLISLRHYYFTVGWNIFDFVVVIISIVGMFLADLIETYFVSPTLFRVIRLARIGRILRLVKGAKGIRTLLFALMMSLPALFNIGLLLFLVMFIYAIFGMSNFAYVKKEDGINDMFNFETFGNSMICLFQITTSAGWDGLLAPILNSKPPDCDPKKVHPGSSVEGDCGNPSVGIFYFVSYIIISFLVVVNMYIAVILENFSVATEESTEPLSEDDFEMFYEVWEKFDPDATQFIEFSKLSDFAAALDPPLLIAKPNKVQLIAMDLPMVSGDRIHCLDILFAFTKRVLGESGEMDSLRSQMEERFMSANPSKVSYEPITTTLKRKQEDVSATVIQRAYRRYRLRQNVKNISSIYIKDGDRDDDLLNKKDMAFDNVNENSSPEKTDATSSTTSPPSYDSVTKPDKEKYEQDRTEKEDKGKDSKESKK

This test concerns the target human Nav1.7 (Homo sapiens (Human), UniProt Q15858). Briefly: Nav 1.7 In Vitro PX Assay (PatchXpress whole cell voltage clamp). It is filed as cell-based. As to conditions: in-vitro Nav 1.7 PX data. The procedure:
HEK 293 cells stably transfected with human Nav1.7 were recorded in whole cell voltage clamp mode with the PatchXpress automated electrophysiology system (Molecular Devices, LLC, Sunnyvale, Calif.). Compound effects were measured on a partially inactivated state of the sodium channel. Cells were clamped to a holding potential yielding 20 to 50% inactivation. To elicit sodium current, channels were activated by pulsing to −10 mV for 20 msec. This voltage protocol was repeated at a rate of 0.1 Hz throughout the experiment. A single concentration of test compound was applied to cells for a duration of 3 minutes. Peak sodium current was measured at the end of the compound addition period to determine percent inhibition. Three to five cells were tested per concentration, and IC50 curves were fitted to percent inhibition as a function of concentration.
On to `CNC(=O)N(c1ccc(S(=O)(=O)Nc2ccon2)cn1)c1cc(Cl)c(-c2cc(C)c(F)c(OC)c2)cc1OC` [Example 1-50, 6-((2-chloro-4′-fluoro-3′,5-dimethoxy-5′-methyl-4-biphenylyl)(methylcarbamoyl)amino)-N-3-isoxazolyl-3-pyridinesulfonamide], for which the concentration for half-maximal inhibition (IC50) was 49 nM. This counts as double-digit nanomolar. As for `CNC(=O)N(c1ccc(S(=O)(=O)Nc2ccon2)cn1)c1cc(F)c(CCC(F)(F)F)cc1OC` [Example 8, 6-((5-fluoro-2-methoxy-4-(3,3,3-trifluoropropyl)phenyl)(methylcarbamoyl)amino)-N-3-isoxazolyl-3-pyridinesulfonamide], the IC50 is 849 nM.

Take `CNC(=O)N(c1ccc(S(=O)(=O)Nc2ccon2)cn1)c1cc(F)c(-c2ccc(C)c(Cl)c2)cc1OC` [Example 1-17, 6-((3′-chloro-2-fluoro-5-methoxy-4′-methyl-4-biphenylyl)(methylcarbamoyl)amino)-N-3-isoxazolyl-3-pyridinesulfonamide]: the IC50 is 31 nM. In turn, `CNC(=O)N(c1ccc(S(=O)(=O)Nc2ccon2)cn1)c1cc(-c2cc(Cl)cc(OC)c2)ccc1OC` [Example 4-1, 6-((3′-chloro-4,5′-dimethoxy-3-biphenylyl)(methylcarbamoyl)amino)-N-3-isoxazolyl-3-pyridinesulfonamide] yielded an IC50 of 461 nM.

Consider `CNC(=O)N(c1ccc(S(=O)(=O)Nc2ccon2)cn1)c1cc(Cl)c(-c2ccc(F)c(OC(F)(F)F)c2)cc1OC` [Example 1-69, 6-((2-chloro-4′-fluoro-5-methoxy-3′-(trifluoromethoxy)-4-biphenylyl)(methylcarbamoyl)amino)-N-3-isoxazolyl-3-pyridinesulfonamide], for which the IC50 amounted to 6 nM.

`CNC(=O)N(c1ccc(S(=O)(=O)Nc2ccon2)cn1)c1cc(Cl)c(-c2cc(Cl)cc(C#N)c2)cc1OC` [Example 1-53, 6-((2,3′-dichloro-5′-cyano-5-methoxy-4-biphenylyl)(methylcarbamoyl)amino)-N-3-isoxazolyl-3-pyridinesulfonamide]: the IC50 is 48 nM. As for `CNC(=O)N(c1ccc(S(=O)(=O)Nc2ccon2)cn1)c1cc(Cl)c(-c2ccc(Cl)c(C)c2)cc1OC` [Example 1-29, 6-((2,4′-dichloro-5-methoxy-3′-methyl-4-biphenylyl)(methylcarbamoyl)amino)-N-3-isoxazolyl-3-pyridinesulfonamide], inhibition was half-maximal at 20 nM (IC50).

Turning to `CNC(=O)N(c1ccc(S(=O)(=O)Nc2ccon2)cn1)c1cc(F)c(-c2cc(OC)cc(OC(F)(F)F)c2)cc1OC` [Example 1-7, 6-((2-fluoro-3′,5-dimethoxy-5′-(trifluoromethoxy)-4-biphenylyl)(methylcarbamoyl)amino)-N-3-isoxazolyl-3-pyridinesulfonamide], inhibition was half-maximal at 18 nM (IC50). To `CNC(=O)N(c1ccc(S(=O)(=O)Nc2ccncn2)cn1)c1cc(Cl)c(-c2ccc(F)c(OCC(F)(F)F)c2)cc1OC` [Example 3-6, 6-((2-chloro-4′-fluoro-5-methoxy-3′-(2,2,2-trifluoroethoxy)-4-biphenylyl)(methylcarbamoyl)amino)-N-4-pyrimidinyl-3-pyridinesulfonamide] belongs 51 nM.

Turning to `CNC(=O)N(c1ccc(S(=O)(=O)Nc2ncccn2)cn1)c1ccc(-c2ccc(F)c(OC(F)(F)F)c2)cc1OC` [Example 2-7, 6-((4′-fluoro-3-methoxy-3′-(trifluoromethoxy)-4-biphenylyl)(methylcarbamoyl)amino)-N-2-pyrimidinyl-3-pyridinesulfonamide], half-maximal inhibition (IC50) was put at 4 nM. Against the preceding molecule, the IC50 is about 13-fold lower. To `CNC(=O)N(c1ccc(S(=O)(=O)Nc2ccnc(C)n2)cn1)c1cc(Cl)c(-c2ccc(F)c(OCC(F)(F)F)c2)cc1OC` [Example 3-5, 6-((2-chloro-4′-fluoro-5-methoxy-3′-(2,2,2-trifluoroethoxy)-4-biphenylyl)(methylcarbamoyl)amino)-N-(2-methyl-4-pyrimidinyl)-3-pyridinesulfonamide] belongs 76 nM; to `CNC(=O)N(c1ccc(S(=O)(=O)Nc2ccon2)cn1)c1cc(Cl)c(-c2ccnc(C(F)(F)F)c2)cc1OC` [Example 1-43, 6-((5-chloro-2-methoxy-4-(2-(trifluoromethyl)-4-pyridinyl)phenyl)(methylcarbamoyl)amino)-N-3-isoxazolyl-3-pyridinesulfonamide], 131 nM; to `COc1cc(-c2cccc(OCC(F)(F)F)c2)c(Cl)cc1N(C(N)=O)c1ccc(S(=O)(=O)Nc2ccon2)cn1` [Example 5-5, 6-(carbamoyl(2-chloro-5-methoxy-3′-(2,2,2-trifluoroethoxy)-4-biphenylyl)amino)-N-3-isoxazolyl-3-pyridinesulfonamide], 16 nM. Regarding `CNC(=O)N(c1ccc(S(=O)(=O)Nc2ccon2)cn1)c1cc(Cl)c(-c2ccc(Cl)cc2)cc1OC` [Example 1-70, 6-((2,4′-dichloro-5-methoxy-4-biphenylyl)(methylcarbamoyl)amino)-N-3-isoxazolyl-3-pyridinesulfonamide], the IC50 turned out to be 52 nM. On to `CNC(=O)N(c1ccc(S(=O)(=O)Nc2ccon2)cn1)c1cc(F)c(-c2ccc(F)c(Cl)c2)cc1OC` [Example 1-21, 6-((3′-chloro-2,4′-difluoro-5-methoxy-4-biphenylyl)(methylcarbamoyl)amino)-N-3-isoxazolyl-3-pyridinesulfonamide], for which 37 nM corresponded to half-maximal inhibition (IC50). Molecule `CNC(=O)N(c1ccc(S(=O)(=O)Nc2ccon2)cn1)c1cc(Cl)c(-c2cc(OC)cc(C(F)(F)F)c2)cc1OC` [Example 1-36, 6-((2-chloro-3′,5-dimethoxy-5′-(trifluoromethyl)-4-biphenylyl)(methylcarbamoyl)amino)-N-3-isoxazolyl-3-pyridinesulfonamide] came in with an IC50 of 11 nM. Against the preceding molecule, the IC50 is about 3.4-fold lower. To `CNC(=O)N(c1ccc(S(=O)(=O)Nc2ccon2)cn1)c1cc(Cl)c(-c2ccc(Cl)c(C#N)c2)cc1OC` [Example 1-54, 6-((2,4′-dichloro-3′-cyano-5-methoxy-4-biphenylyl)(methylcarbamoyl)amino)-N-3-isoxazolyl-3-pyridinesulfonamide] belongs 52 nM.

With `CNC(=O)N(c1ccc(S(=O)(=O)Nc2ccon2)cn1)c1cc(Cl)c(-c2ccc(F)c(Cl)c2)cc1OC` [Example 1-60, 6-((2,3′-dichloro-4′-fluoro-5-methoxy-4-biphenylyl)(methylcarbamoyl)amino)-N-3-isoxazolyl-3-pyridinesulfonamide], the IC50 came out at 19 nM. Take `CNC(=O)N(c1ccc(S(=O)(=O)Nc2ncccn2)cn1)c1cc(Cl)c(-c2ccc(Cl)c(OC)c2)cc1OC` [Example 1-77, 6-((2,4′-dichloro-3′,5-dimethoxy-4-biphenylyl)(methylcarbamoyl)amino)-N-2-pyrimidinyl-3-pyridinesulfonamide]: the 50% inhibitory concentration (IC50) was 70 nM. As to `CNC(=O)N(c1ccc(S(=O)(=O)Nc2ccon2)cn1)c1cc(F)c(-c2ccc(Cl)c(C)c2)cc1OC` [Example 1-1, 6-((4′-chloro-2-fluoro-5-methoxy-3′-methyl-4-biphenylyl)(methylcarbamoyl)amino)-N-3-isoxazolyl-3-pyridinesulfonamide], the IC50 was found to be 57 nM. For the molecule `CNC(=O)N(c1ccc(S(=O)(=O)Nc2ccon2)cn1)c1cc(F)c(-c2cc(F)cc(Cl)c2)cc1OC` [Example 1-5, 6-((3′-chloro-2,5′-difluoro-5-methoxy-4-biphenylyl)(methylcarbamoyl)amino)-N-3-isoxazolyl-3-pyridinesulfonamide], half-maximal inhibition (IC50) required 92 nM.

Broadly, the IC50 is the concentration that gives 50% inhibition. A high value points to lower potency.
